{"source": "patent US20140113949A1", "about": "“METHODS FOR REDUCING NEURODEGENERATION” (NESTEC S.A., priority 2011, published 2014)", "key": {"mTOR": {"tested_on": "mTOR", "assay": "mTOR mRNA expression by semi-quantitative qPCR in MDCK cells", "type": "cell-based, Canine", "conditions": "mRNA normalized to TATA box binding protein", "protocol": "(§1) Cell Culture procedure: Commercially available Madin Darby Canine Kidney (MDCK) cells were obtained from ATCC as a stock suspension of immortalized cells. MDCK cells were cultured at 37° C. in an atmosphere of 95% air/5% CO2 and Dulbecco's Modified Eagle Medium (DMEM) media containing 10% fetal calf serum and 1% antibiotic/antimicrobial solution (DMEM-loaded). The media was changed and cells passed every 1 to 2 days using a solution containing 0.05% trypsin. For RNA extraction, cells were plated at a seeding density of 50,000 to 60,000 cells/cm^2 in 35 mm dishes. Twenty-four hours after seeding, media was changed to either control (DMEM-loaded) or test media (DMEM-loaded+1 nM melatonin). Cells were harvested 1, 3, or 5 days after exposure to control or test media. Media was changed in the remaining dishes on the days of cell harvesting. Total RNA was harvested from MDCK cell lysates using RNAlater RNA stabilization reagent and following the manufacturer's directions (Ambion, Austin, Tex.). mRNA transcripts of mTOR, S6 Kinase, and TATA box binding protein genes were analyzed by semi-quantitative qPCR on days 1, 3, and 5 of media treatment. TATA box binding protein gene transcript was used to normalize the expression of mTOR and S6 Kinase, as it is widely used as a “housekeeping” gene. The procedure in Example 1 was repeated."}, "S6 Kinase": {"tested_on": "S6 Kinase", "assay": "S6 Kinase mRNA expression by semi-quantitative qPCR in MDCK cells", "type": "cell-based, Canine", "conditions": "mRNA normalized to TATA box binding protein", "protocol": "as §1"}, "[1]": {"conditions": "Trial 1, Day 1, control media + 1 nM melatonin"}, "[2]": {"conditions": "Trial 1, Day 3, control media + 1 nM melatonin"}, "[3]": {"conditions": "Trial 1, Day 5, control media + 1 nM melatonin"}, "[4]": {"conditions": "Trial 2, Day 1, control media + 1 nM melatonin"}, "[5]": {"conditions": "Trial 2, Day 3, control media + 1 nM melatonin"}, "[6]": {"conditions": "Trial 2, Day 5, control media + 1 nM melatonin"}}}
{"smiles": "COc1ccc2[nH]cc(CCNC(C)=O)c2c1", "note": "[melatonin, 5-methoxy-N-acetyltryptamine]", "values": [{"measurement": "mTOR Induction", "setting": "mTOR; [1]", "result": 0.93}, {"measurement": "mTOR Induction", "setting": "mTOR; [2]", "result": 0.76}, {"measurement": "mTOR Induction", "setting": "mTOR; [3]", "result": 0.49}, {"measurement": "mTOR Induction", "setting": "mTOR; [4]", "result": 0.98}, {"measurement": "mTOR Induction", "setting": "mTOR; [5]", "result": 1.02}, {"measurement": "mTOR Induction", "setting": "mTOR; [6]", "result": 1.01}, {"measurement": "S6 Kinase Induction", "setting": "S6 Kinase; [1]", "result": 1.14}, {"measurement": "S6 Kinase Induction", "setting": "S6 Kinase; [2]", "result": 0.66}, {"measurement": "S6 Kinase Induction", "setting": "S6 Kinase; [3]", "result": 0.51}, {"measurement": "S6 Kinase Induction", "setting": "S6 Kinase; [4]", "result": 1.05}, {"measurement": "S6 Kinase Induction", "setting": "S6 Kinase; [5]", "result": 0.82}, {"measurement": "S6 Kinase Induction", "setting": "S6 Kinase; [6]", "result": 0.75}]}
